In ChEMBL document CHEMBL4219148, “Discovery of a highly potent orally bioavailable imidazo-[1, 2-a]pyrazine Aurora inhibitor” (Bioorg Med Chem Lett, 2018):
≈ marks a conversion by molar mass, not a printed value.

Columns and labels:
[1] = AUC (0 to 48 hrs) in dog at 1 mg/kg, iv; type: ADME, organism-based, Canis lupus familiaris; set-up: dose 1 mg/kg, time < 48 hr, route intravenous; details: in vivo
[2] = Protein binding in human plasma; type: ADME, cell-free; details: read-out: PPB (converted)
[3] = target: Cytochrome P450 2C19 (Homo sapiens, UniProt P33261); experiment: Inhibition of CYP2C19 in human liver microsomes; type: ADME
[4] = AUC (0 to 6 hrs) in rat at 10 mg/kg, po; type: ADME, organism-based; set-up: time < 6 hr, dose 10 mg/kg, route oral; details: in vivo
[5] = Clearance in monkey at 1 mg/kg, iv; type: ADME, organism-based, Macaca mulatta; details: rhesus monkey, in vivo
[6] = Clearance in mouse at 3 mg/kg, iv; type: ADME, organism-based; details: in vivo
[7] = target: Cytochrome P450 3A4 (Homo sapiens, UniProt P08684); experiment: Inhibition of CYP3A4 in human liver microsomes; type: ADME
[8] = Oral bioavailability in monkey at 3 mg/kg; type: ADME, organism-based, Macaca mulatta; details: rhesus monkey, in vivo
[9] = Clearance in dog at 1 mg/kg, iv; type: ADME, organism-based, Canis lupus familiaris; details: in vivo
[10] = AUC (0 to 48 hrs) in dog at 3 mg/kg, po; type: ADME, organism-based, Canis lupus familiaris; set-up: dose 3 mg/kg, time < 48 hr, route oral; details: in vivo
[11] = Oral bioavailability in mouse at 50 mg/kg; type: ADME, organism-based; details: in vivo
[12] = Oral bioavailability in dog at 3 mg/kg; type: ADME, organism-based, Canis lupus familiaris; details: in vivo
[13] = target: Serine/threonine-protein kinase Nek2 (Homo sapiens, UniProt P51955); experiment: Inhibition of NEK2 (unknown origin)
[14] = target: Testis-specific serine/threonine-protein kinase 2 (Homo sapiens, UniProt Q96PF2); experiment: Inhibition of TSSK2 (unknown origin)
[15] = target: Ribosomal protein S6 kinase alpha-3 (Homo sapiens, UniProt P51812); experiment: Inhibition of RSK2 (unknown origin)
[16] = Protein binding in rat plasma; type: ADME, cell-free; details: read-out: PPB (converted)
[17] = Kinetic solubility of the compound in sodium phosphate buffer/2% DMSO at pH 7.4 by static light scattering method; type: physicochemical; details: read-out: Kinetic_solubility
[18] = Volume of distribution in monkey at 1 mg/kg, iv; type: ADME, organism-based, Macaca mulatta; details: rhesus monkey, in vivo
[19] = Volume of distribution in rat at 1 mg/kg, iv; type: ADME, organism-based; details: in vivo
[20] = Volume of distribution in mouse at 3 mg/kg, iv; type: ADME, organism-based; details: in vivo
[21] = target: T1, Aurora kinase A (Homo sapiens, UniProt O14965); experiment: Binding affinity to Aurora A (unknown origin) after 45 mins by fluorescence-based thermal stability shift assay
T1 sequence (O14965 whole entry): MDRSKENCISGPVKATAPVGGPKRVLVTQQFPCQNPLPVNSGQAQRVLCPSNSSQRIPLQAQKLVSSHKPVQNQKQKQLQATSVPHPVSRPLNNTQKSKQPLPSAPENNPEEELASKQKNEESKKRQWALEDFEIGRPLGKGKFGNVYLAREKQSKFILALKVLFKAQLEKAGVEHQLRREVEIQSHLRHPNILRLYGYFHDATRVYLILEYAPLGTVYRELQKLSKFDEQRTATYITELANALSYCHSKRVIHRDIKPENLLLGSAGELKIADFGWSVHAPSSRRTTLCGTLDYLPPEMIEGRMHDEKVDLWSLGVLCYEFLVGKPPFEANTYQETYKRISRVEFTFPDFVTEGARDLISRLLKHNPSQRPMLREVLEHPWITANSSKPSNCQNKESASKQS

[22] = Protein binding in mouse plasma; type: ADME, cell-free; details: read-out: PPB (converted)
[23] = AUC (0 to 48 hrs) in rat at 1 mg/kg, iv; type: ADME, organism-based; set-up: time < 48 hr, dose 1 mg/kg, route intravenous; details: in vivo
[24] = AUC (0 to 48 hrs) in monkey at 1 mg/kg, iv; type: ADME, organism-based, Macaca mulatta; set-up: time < 48 hr, dose 1 mg/kg, route intravenous; details: rhesus monkey, in vivo
[25] = AUC (0 to 24 hrs) in mouse at 50 mg/kg, po; type: ADME, organism-based; set-up: time < 24 hr, dose 50 mg/kg, route oral; details: in vivo
[26] = tested on: A2780; experiment: Antitumor activity against human A2780 cells xenografted in nu/nu mouse assessed as tumor growth inhibition at 300 mg/kg, po bid; type: functional; details: read-out: TGI
[27] = AUC (0 to 24 hrs) in mouse at 3 mg/kg, iv; type: ADME, organism-based; set-up: time < 24 hr, dose 3 mg/kg, route intravenous; details: in vivo
[28] = AUC (0 to 48 hrs) in rat at 3 mg/kg, po; type: ADME, organism-based; set-up: dose 3 mg/kg, time < 48 hr, route oral; details: in vivo
[29] = Volume of distribution in dog at 1 mg/kg, iv; type: ADME, organism-based, Canis lupus familiaris; details: in vivo
[30] = target: Cytochrome P450 2C9 (Homo sapiens, UniProt P11712); experiment: Inhibition of CYP2C9 in human liver microsomes; type: ADME
[31] = Half life in rat at 1 mg/kg, iv; type: ADME, organism-based; details: in vivo
[32] = Clearance in rat at 1 mg/kg, iv; type: ADME, organism-based; details: in vivo
[33] = Oral bioavailability in rat at 3 mg/kg; type: ADME, organism-based; details: in vivo
[34] = Half life in dog at 1 mg/kg, iv; type: ADME, organism-based, Canis lupus familiaris; details: in vivo
[35] = AUC (0 to 48 hrs) in monkey at 10 mg/kg, po; type: ADME, organism-based, Macaca mulatta; set-up: time < 48 hr, dose 10 mg/kg, route oral; details: rhesus monkey, in vivo
[36] = Intrinsic clearance in cryopreserved dog hepatocytes assessed per million cells; type: ADME, cell-based, Canis lupus familiaris, Hepatocyte; details: read-out: CLH
[37] = Clearance in rat at 10 mg/kg, iv; type: ADME, organism-based; details: in vivo
[38] = tested on: A2780; experiment: Antitumor activity against human A2780 cells xenografted in nu/nu mouse assessed as tumor growth inhibition at 10 mg/kg, ip bid for 3 days; type: functional; details: 72 h, read-out: TGI
[39] = tested on: HCT-116; experiment: Induction of endoreduplication in human HCT116 cells assessed as accumulation of >=4 N DNA preincubated for 24 hrs followed by compound washout by FACS analysis; type: functional
[40] = Volume of distribution in rat at 10 mg/kg, iv; type: ADME, organism-based; details: in vivo
[41] = tested on: Mus musculus; experiment: Toxicity in nu/nu mouse xenografted with human A2780 cells assessed as body weight loss at 10 mg/kg, po bid after 3 days; type: organism-based; details: in vivo, 72 h
[42] = AUC (0 to 24 hrs) in rat at 10 mg/kg, iv; type: ADME, organism-based; set-up: time < 24 hr, dose 10 mg/kg, route intravenous; details: in vivo
[43] = Equilibrium solubility of the compound in citrate buffer at pH 5.3 by HPLC method; type: physicochemical
[44] = target: Ribosomal protein S6 kinase; experiment: Inhibition of S6K (unknown origin); type: protein assay, Homo sapiens
[45] = tested on: A2780; experiment: Antitumor activity against human A2780 cells xenografted in nu/nu mouse assessed as tumor growth inhibition at 10 mg/kg, po bid for 3 days; type: functional; details: 72 h, read-out: TGI
[46] = target: Interleukin-1 receptor-associated kinase 4 (Homo sapiens, UniProt Q9NWZ3); experiment: Inhibition of IRAK4 (unknown origin)
[47] = tested on: Mus musculus; experiment: Toxicity in nu/nu mouse xenografted with human A2780 cells assessed as body weight loss at 25 mg/kg, po qd after 3 days; type: organism-based; details: in vivo, 72 h
[48] = tested on: Mus musculus; experiment: Toxicity in nu/nu mouse xenografted with human A2780 cells assessed as death at 10 to 25 mg/kg, po after 3 days; type: organism-based; details: in vivo, 72 h
[49] = Oral bioavailability in rat at 30 mg/kg; type: ADME, organism-based; details: in vivo
[50] = Oral bioavailability in monkey at 10 mg/kg; type: ADME, organism-based, Macaca mulatta; details: rhesus monkey, in vivo
[51] = Half life in rat at 10 mg/kg, iv; type: ADME, organism-based; details: in vivo
[52] = tested on: A2780; experiment: Antitumor activity against human A2780 cells xenografted in nu/nu mouse assessed as tumor growth inhibition at 25 mg/kg, po qd for 3 days; type: functional; details: 72 h, read-out: TGI
[53] = Intrinsic clearance in cryopreserved monkey hepatocytes assessed per million cells; type: ADME, cell-based, Macaca mulatta, Hepatocyte; details: rhesus monkey, read-out: CLH
[54] = Intrinsic clearance in cryopreserved human hepatocytes assessed per million cells; type: ADME, cell-based, Hepatocyte; details: read-out: CLH

Sequence of Cytochrome P450 3A4 (P08684 whole entry): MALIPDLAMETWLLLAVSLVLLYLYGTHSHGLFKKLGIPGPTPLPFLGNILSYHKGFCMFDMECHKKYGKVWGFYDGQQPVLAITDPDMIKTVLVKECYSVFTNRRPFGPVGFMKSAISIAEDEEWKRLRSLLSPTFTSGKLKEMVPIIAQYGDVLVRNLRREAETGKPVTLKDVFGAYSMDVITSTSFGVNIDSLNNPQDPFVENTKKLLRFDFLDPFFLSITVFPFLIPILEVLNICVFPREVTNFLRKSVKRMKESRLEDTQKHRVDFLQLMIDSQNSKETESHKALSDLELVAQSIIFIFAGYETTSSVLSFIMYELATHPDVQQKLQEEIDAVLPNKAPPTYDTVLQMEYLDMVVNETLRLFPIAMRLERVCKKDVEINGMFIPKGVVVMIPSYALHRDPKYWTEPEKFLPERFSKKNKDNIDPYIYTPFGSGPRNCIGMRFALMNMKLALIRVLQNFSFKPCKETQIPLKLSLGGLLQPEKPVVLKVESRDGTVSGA
Sequence of Serine/threonine-protein kinase Nek2 (P51955 whole entry): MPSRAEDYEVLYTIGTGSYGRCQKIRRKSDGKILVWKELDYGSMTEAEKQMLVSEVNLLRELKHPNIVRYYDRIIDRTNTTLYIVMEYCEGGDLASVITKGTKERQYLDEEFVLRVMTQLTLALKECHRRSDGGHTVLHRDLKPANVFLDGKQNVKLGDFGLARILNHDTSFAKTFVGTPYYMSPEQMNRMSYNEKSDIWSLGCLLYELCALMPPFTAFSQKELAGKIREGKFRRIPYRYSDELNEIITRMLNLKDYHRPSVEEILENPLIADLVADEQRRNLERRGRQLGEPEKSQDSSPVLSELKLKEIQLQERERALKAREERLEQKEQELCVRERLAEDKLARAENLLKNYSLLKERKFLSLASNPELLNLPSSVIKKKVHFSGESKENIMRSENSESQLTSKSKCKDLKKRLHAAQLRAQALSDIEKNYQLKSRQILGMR
Sequence of Cytochrome P450 2C9 (P11712 whole entry): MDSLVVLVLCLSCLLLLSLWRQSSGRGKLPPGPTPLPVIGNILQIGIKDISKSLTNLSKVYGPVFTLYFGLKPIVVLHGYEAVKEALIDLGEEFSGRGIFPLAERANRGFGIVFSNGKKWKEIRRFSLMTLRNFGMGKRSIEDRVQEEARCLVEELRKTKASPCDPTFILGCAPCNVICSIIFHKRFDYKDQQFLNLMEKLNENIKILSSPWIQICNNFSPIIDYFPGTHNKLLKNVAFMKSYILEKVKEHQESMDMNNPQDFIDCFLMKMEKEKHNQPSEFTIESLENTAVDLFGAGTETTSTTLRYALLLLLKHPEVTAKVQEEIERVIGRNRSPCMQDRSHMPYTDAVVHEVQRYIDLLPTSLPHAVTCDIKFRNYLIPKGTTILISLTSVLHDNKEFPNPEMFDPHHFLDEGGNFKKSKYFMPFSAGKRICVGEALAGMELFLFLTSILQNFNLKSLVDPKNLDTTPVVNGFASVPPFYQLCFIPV
Sequence of Testis-specific serine/threonine-protein kinase 2 (Q96PF2 whole entry): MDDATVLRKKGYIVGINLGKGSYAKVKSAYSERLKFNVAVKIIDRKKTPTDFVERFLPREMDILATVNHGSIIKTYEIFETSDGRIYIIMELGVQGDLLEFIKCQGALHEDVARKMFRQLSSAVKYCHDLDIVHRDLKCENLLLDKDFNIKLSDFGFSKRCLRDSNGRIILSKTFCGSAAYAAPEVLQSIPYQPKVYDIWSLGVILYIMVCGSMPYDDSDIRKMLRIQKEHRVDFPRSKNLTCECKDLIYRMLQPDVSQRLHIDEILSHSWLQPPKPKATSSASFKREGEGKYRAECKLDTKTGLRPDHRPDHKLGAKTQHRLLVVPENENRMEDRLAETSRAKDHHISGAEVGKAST
Sequence of Ribosomal protein S6 kinase alpha-3 (P51812 whole entry): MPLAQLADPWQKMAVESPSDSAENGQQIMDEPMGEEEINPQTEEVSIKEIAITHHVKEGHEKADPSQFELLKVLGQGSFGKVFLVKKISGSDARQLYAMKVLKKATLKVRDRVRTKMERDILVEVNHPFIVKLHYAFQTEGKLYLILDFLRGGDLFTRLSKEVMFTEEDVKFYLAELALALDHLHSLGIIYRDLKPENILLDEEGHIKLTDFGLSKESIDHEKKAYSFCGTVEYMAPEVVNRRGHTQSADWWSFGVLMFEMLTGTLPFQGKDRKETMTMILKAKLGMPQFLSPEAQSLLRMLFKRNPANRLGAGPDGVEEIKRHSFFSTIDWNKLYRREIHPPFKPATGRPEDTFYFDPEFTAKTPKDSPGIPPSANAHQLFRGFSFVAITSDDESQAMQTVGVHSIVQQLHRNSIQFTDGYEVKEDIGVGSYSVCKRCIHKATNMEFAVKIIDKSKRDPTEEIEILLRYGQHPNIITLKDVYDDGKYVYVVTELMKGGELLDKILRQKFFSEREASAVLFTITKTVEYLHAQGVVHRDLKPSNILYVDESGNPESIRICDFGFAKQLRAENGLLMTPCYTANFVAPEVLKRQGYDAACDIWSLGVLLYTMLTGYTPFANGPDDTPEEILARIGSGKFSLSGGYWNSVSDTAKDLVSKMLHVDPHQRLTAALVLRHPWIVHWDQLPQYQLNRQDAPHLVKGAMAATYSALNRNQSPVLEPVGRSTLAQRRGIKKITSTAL
Sequence of Interleukin-1 receptor-associated kinase 4 (Q9NWZ3 whole entry): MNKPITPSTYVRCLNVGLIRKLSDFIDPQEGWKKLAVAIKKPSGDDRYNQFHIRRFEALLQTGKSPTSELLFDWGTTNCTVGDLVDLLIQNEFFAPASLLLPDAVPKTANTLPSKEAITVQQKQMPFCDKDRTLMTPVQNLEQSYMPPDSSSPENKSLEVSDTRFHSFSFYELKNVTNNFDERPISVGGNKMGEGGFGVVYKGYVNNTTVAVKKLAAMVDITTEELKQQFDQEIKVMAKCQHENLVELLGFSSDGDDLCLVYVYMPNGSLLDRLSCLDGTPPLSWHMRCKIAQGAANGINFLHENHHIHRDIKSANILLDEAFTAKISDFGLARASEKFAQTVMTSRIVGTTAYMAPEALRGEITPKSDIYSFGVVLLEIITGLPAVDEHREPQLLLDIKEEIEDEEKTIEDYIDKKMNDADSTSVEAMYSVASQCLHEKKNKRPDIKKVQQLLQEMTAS
Sequence of Cytochrome P450 2C19 (P33261 whole entry): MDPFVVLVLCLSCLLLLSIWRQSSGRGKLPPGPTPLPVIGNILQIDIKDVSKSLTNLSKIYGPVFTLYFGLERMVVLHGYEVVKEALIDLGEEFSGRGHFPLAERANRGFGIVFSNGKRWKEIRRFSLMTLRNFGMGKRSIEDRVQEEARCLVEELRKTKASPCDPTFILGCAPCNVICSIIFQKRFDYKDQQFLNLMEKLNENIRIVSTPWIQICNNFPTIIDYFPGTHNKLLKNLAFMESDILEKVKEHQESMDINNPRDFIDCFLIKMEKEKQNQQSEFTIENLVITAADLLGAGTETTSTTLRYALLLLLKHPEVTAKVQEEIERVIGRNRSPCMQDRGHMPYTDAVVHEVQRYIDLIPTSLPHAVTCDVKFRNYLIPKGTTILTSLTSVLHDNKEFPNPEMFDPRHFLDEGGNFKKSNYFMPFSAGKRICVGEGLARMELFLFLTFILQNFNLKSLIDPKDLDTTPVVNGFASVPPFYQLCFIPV

Cc1cn2c(-c3cn[nH]c3)cnc2c(Nc2cc(Cc3ccccn3)ns2)n1
AUC(0-t) at 48 h [1]: 9.2 µM·h
fraction unbound [2]: 0.009
IC50 [3]: > 20000 nM
AUC(0-t) at 6 h [4]: 17.7 µM·h
clearance [5]: 28 mL/min/kg
clearance [6]: 118 mL/min/kg
IC50 [7]: > 20000 nM
bioavailability [8]: 0%
clearance [9]: 5 mL/min/kg
AUC(0-t) at 48 h [10]: 4.1 µM·h
bioavailability [11]: 77%
bioavailability [12]: 15%
IC50 [13]: > 500 nM
IC50 [14]: > 500 nM
IC50 [15]: 260 nM
fraction unbound [16]: 0.004
solubility kinetic [17]: 20 µM (≈ 7.77 µg/mL)
Vd [18]: 1 L/kg
Vd [19]: 0.7 L/kg
Vd [20]: 1.6 L/kg
Kd [21]: 0.01 nM
fraction unbound [22]: 0.028
AUC(0-t) at 48 h [23]: 2.8 µM·h
AUC(0-t) at 48 h [24]: 1.7 µM·h
AUC(0-t) at 24 h [25]: 14.1 µM·h
inhibition in vivo at 300 mg/kg [26]: 61%
AUC(0-t) at 24 h [27]: 1.1 µM·h
AUC(0-t) at 48 h [28]: 0.8 µM·h
Vd [29]: 0.2 L/kg
IC50 [30]: > 20000 nM
half-life [31]: 0.7 h
clearance [32]: 15 mL/min/kg
bioavailability [33]: 10%
half-life [34]: 0.8 h

CCN(CCO)Cc1cc(Nc2nc(C)cn3c(-c4cn[nH]c4)cnc23)sn1
IC50 [13]: > 500 nM
IC50 [14]: > 500 nM
IC50 [15]: 180 nM

Cc1cn2c(-c3cn[nH]c3)cnc2c(Nc2cc(C(NC(C)(C)C)c3ccccn3)ns2)n1 (single isomer, unassigned; (+))
AUC(0-t) at 48 h [1]: 3.9 µM·h
AUC(0-t) at 48 h [35]: 4 µM·h
hepatocyte CLint [36]: 5.1 µL/min/1e6 cells
clearance [37]: 11 mL/min/kg
inhibition in vivo at 10 mg/kg [38]: 94%
fraction unbound [2]: 0.012
clearance [5]: 7.4 mL/min/kg
clearance [6]: 50 mL/min/kg
Cmin [39]: 6 nM
Vd [40]: 2.5 L/kg
Activity [41]: 10%
IC50 [7]: > 20000 nM
AUC(0-t) at 24 h [42]: 33 µM·h
clearance [9]: 9.4 mL/min/kg
solubility thermodynamic [43]: 5300 µg/mL (≈ 11.5 mM)
IC50 [44]: > 1000 nM
AUC(0-t) at 48 h [10]: 10.1 µM·h
bioavailability [11]: 64%
bioavailability [12]: 86%
fraction unbound [16]: 0.01
Vd [18]: 1.3 L/kg
inhibition in vivo at 10 mg/kg [45]: 79%
Vd [20]: 5.3 L/kg
Kd [21]: 0.01 nM
IC50 [46]: 380 nM
Activity [47]: 10%
Activity [48]: Toxic
bioavailability [49]: 40%
bioavailability [50]: 8%
fraction unbound [22]: 0.028
AUC(0-t) at 48 h [24]: 5 µM·h
AUC(0-t) at 24 h [25]: 23.5 µM·h
half-life [51]: 2.6 h
inhibition in vivo at 25 mg/kg [52]: 86%
AUC(0-t) at 24 h [27]: 2.2 µM·h
hepatocyte CLint [53]: 27.6 µL/min/1e6 cells
Vd [29]: 3.7 L/kg
IC50 [30]: 6000 nM
hepatocyte CLint [54]: 11.8 µL/min/1e6 cells
half-life [34]: 4.6 h
